Test results from ChEMBL document CHEMBL4033634, “Synthesis and biological evaluation of novel aromatic and heterocyclic bis-sulfonamide Schiff bases as carbonic anhydrase I, II, VII and IX inhibitors” (Bioorg Med Chem, 2017).

Experiments:
Carbonic anhydrase 1 = Carbonic anhydrase 1 (Homo sapiens, UniProt P00915); experiment: Inhibition of human carbonic anhydrase 1 incubated for 10 mins by stopped flow CO2 hydrase assay
Carbonic anhydrase 9 = Carbonic anhydrase 9 (Homo sapiens, UniProt Q16790); experiment: Inhibition of human carbonic anhydrase 9 incubated for 10 mins by stopped flow CO2 hydrase assay

Sequence of Carbonic anhydrase 1 (P00915 whole entry): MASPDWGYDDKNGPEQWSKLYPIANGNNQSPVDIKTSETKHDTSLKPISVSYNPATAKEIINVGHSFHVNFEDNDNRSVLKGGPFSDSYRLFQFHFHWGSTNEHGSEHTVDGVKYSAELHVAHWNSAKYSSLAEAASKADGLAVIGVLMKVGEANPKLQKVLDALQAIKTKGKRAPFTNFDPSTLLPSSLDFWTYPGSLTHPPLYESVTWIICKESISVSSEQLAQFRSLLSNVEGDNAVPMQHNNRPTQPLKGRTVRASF

Row | Ki (Carbonic anhydrase 1) [nM] | Ki (Carbonic anhydrase 9) [nM] | Structure (SMILES)
1 | > 10000 | 516 | NS(=O)(=O)c1cccc(/N=C/c2ccc(/C=N/c3cccc(S(N)(=O)=O)c3)o2)c1
2 |  | 17.9 | NS(=O)(=O)c1ccc(CC/N=C/c2ccccc2/C=N/CCc2ccc(S(N)(=O)=O)cc2)cc1
3 |  | 934 | NS(=O)(=O)c1ccc(/N=C/c2ccc(/C=N/c3ccc(S(N)(=O)=O)cc3)cc2)cc1
4 |  | 678 | NS(=O)(=O)c1cccc(/N=C/c2cccc(/C=N/c3cccc(S(N)(=O)=O)c3)c2)c1
5 |  | 21.8 | NS(=O)(=O)c1ccc(/N=C/c2ccccc2/C=N/c2ccc(S(N)(=O)=O)cc2)cc1
6 |  | 1470 | NS(=O)(=O)c1cccc(/N=C/c2ccc(/C=N/c3cccc(S(N)(=O)=O)c3)cc2)c1
7 |  | 76.2 | NS(=O)(=O)c1ccc(/N=C/c2ccc(/C=N/c3ccc(S(N)(=O)=O)cc3)o2)cc1
8 |  | 93.1 | NS(=O)(=O)c1ccc(/N=C/c2cccc(/C=N/c3ccc(S(N)(=O)=O)cc3)c2)cc1
9 |  | 89.6 | NS(=O)(=O)c1cccc(/N=C/c2ccccc2/C=N/c2cccc(S(N)(=O)=O)c2)c1

More lines, now with the values behind:

Row | Structure (SMILES) | Ki (Carbonic anhydrase 1) [nM] | Ki (Carbonic anhydrase 9) [nM]
10 | NS(=O)(=O)c1nnc(/N=C/c2ccc(/C=N/c3nnc(S(N)(=O)=O)s3)o2)s1 |  | 5.9
11 | NS(=O)(=O)c1ccc(CC/N=C/c2ccc(/C=N/CCc3ccc(S(N)(=O)=O)cc3)o2)cc1 |  | 153
12 | NS(=O)(=O)c1ccc(CC/N=C/c2cccc(/C=N/CCc3ccc(S(N)(=O)=O)cc3)c2)cc1 |  | 319
13 | NS(=O)(=O)c1ccc(CC/N=C/c2ccc(/C=N/CCc3ccc(S(N)(=O)=O)cc3)cc2)cc1 |  | 261
14 | NS(=O)(=O)c1nnc(/N=C/c2ccc(/C=N/c3nnc(S(N)(=O)=O)s3)cc2)s1 |  | 25.2
15 | NS(=O)(=O)c1nnc(/N=C/c2cccc(/C=N/c3nnc(S(N)(=O)=O)s3)c2)s1 |  | 0.5
16 | NS(=O)(=O)c1nnc(/N=C/c2ccccc2/C=N/c2nnc(S(N)(=O)=O)s2)s1 |  | 5.8
